Experimental findings from ChEMBL document CHEMBL5150035, “Mechanism-based inhibition of GH127/146 cysteine glycosidases by stereospecifically functionalized l-arabinofuranosides” (Bioorg Med Chem, 2022) are described below.

The structures appear in SMILES notation. Calls of active or inactive are those of the source. The rule behind the calls is not given here.

The nature of series [1]: Substrate activity at Bifidobacterium longum JCM 1217 HypBA1 homologue BLLJ_1848 at 10 mM incubated for 24 hrs in presence of TCEP by TLC analysis. Type of series: ADME. To be noted: 10000 µM.
Series [2] is described as follows: Drug metabolism assessed as hydrolysed metabolite formation at 10 mM incubated for 24 hrs in presence of TCEP by TLC analysis. Type of series: ADME. The following applies: 10000 µM.
For series [3], the system named is Bifidobacterium longum. The series is described as follows: Inhibition of Bifidobacterium longum JCM 1217 HypBA1 homologue BLLJ_1848 using S3 as substrate preincubated with enzyme followed by substrate addition for 30 mins in absence of TCEP by HPLC-FLD analysis.
Series [4] concerns Bifidobacterium longum. Briefly: Inhibition of Bifidobacterium longum JCM 1217 HypBA1 homologue BLLJ_1848 using S3 as substrate preincubated with enzyme followed by substrate addition for 30 mins in presence of TCEP by HPLC-FLD analysis.
Series [5] can be described thus: Substrate activity at Bifidobacterium longum JCM 1217 HypBA1 homologue BLLJ_1848 at 10 mM incubated for 24 hrs in absence of TCEP by TLC analysis. Type of series: ADME. The following applies: 10000 µM.
Series [6] addresses T1, Non-reducing end beta-L-arabinofuranosidase (Bifidobacterium longum subsp. longum) (UniProt E8MGH8).
T1 sequence (whole entry): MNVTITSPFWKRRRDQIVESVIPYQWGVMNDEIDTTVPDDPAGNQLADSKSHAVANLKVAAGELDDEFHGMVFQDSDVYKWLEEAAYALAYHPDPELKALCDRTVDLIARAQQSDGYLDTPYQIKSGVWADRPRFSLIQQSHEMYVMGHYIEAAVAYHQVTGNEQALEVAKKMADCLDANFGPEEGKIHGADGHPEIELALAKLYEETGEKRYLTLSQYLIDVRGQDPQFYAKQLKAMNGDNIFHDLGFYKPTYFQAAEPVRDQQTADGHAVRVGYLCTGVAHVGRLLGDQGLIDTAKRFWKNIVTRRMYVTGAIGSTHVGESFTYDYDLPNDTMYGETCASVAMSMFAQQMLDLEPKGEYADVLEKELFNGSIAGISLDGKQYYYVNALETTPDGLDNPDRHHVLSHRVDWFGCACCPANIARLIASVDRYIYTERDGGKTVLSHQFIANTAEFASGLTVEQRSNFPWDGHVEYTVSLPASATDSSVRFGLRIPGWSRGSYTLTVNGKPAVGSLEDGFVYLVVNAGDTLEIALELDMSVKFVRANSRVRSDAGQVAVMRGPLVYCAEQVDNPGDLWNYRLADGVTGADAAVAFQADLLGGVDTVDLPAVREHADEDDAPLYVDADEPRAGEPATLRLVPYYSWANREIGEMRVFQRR
Briefly: Inhibition of C-terminal-His6-tagged Bifidobacterium longum HypBA1 expressed in Escherichia coli C43 (DE3) cells assessed as reduction in pNP liberation using pNP-beta-L-Araf as substrate at 0.1 to 1 mM preincubated with enzyme for 2 hrs followed by substrate addition and measured after 24 hrs by spectrophotometric analysis. The following applies: dose 0.1-1 mM, time 26.0 hrs.

For series [7], the target named is T1, Non-reducing end beta-L-arabinofuranosidase (Bifidobacterium longum subsp. longum). The series is described as follows: Inhibition of C-terminal-His6-tagged Bifidobacterium longum HypBA1 expressed in Escherichia coli C43 (DE3) cells […] using L-Araf3-Hyp as substrate preincubated with enzyme for 2 hrs followed by substrate addition and measured after 24 hrs by spectrophotometric analysis. To be noted: time 26.0 hrs.

Take `[N-]=[N+]=N[C@@H]1O[C@@H](CO)[C@H](O)[C@H]1O`: the outcome in series [1] was Active. For the same compound, the Drug metabolism entry in series [2] was “Metabolite_Detected”. The inhibition result in the series on Bifidobacterium longum [3] and in the series on Bifidobacterium longum [4] was “Active” in each case.
As for `[N-]=[N+]=N[C@H]1O[C@@H](CO)[C@H](O)[C@H]1O`, the result in series [1] and in series [5] was Active. Also, the Drug metabolism entry in series [2] was “Metabolite_Detected”.
Take `O=C(CBr)N[C@@H]1O[C@@H](CO)[C@H](O)[C@H]1O`: the inhibition entry in series [6] was “Active”.
On the same count and under the same terms, for `O=C(CBr)N[C@H]1O[C@@H](CO)[C@H](O)[C@H]1O` the value was “Active”.
For the compound `O=C(CCl)N[C@H]1O[C@@H](CO)[C@H](O)[C@H]1O`, in series [7], the inhibition entry was “Active”.
Same read-out and setting: for `O=C(CCl)N[C@@H]1O[C@@H](CO)[C@H](O)[C@H]1O` the value was “Active”.
